Measured values: patent publication US9802927B2, “Oxadiazine compounds and methods of use thereof” (Denali Therapeutics, Inc., priority 2015, dated 2017)

tested on: Aβ42; assay: In vitro cell screening assay in H4 cells expressing human APP751: Aβ42 by sandwich ELISA; type: cell-based; conditions: Homo sapiens, compounds 0.003-10 μM, incubated overnight (16-18 h), sandwich ELISA of supernatant
Method in brief: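 H4 neuroglioma cells stably expressing wild-type human APP751, switched to Pro293 medium and treated with compounds (0.003-10 μM, 0.33% DMSO) for 16-18 h at 37 °C. Supernatant Aβ42 quantified by sandwich ELISA (C-terminal capture, 4G8-HRP detection, A450); EC50 by sigmoidal fit normalized to DMSO and DAPT controls.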

| SMILES | EC50 |
| --- | --- |
| COc1nc(C2=NOCC(C3CCC(F)(F)CC3)N2)ccc1-n1cnc(C)c1 (single isomer, unassigned; (-)) [Example 139A, (−)-5-(4,4-difluorocyclohexyl)-3-(6-methoxy-5-(4-methyl-1H-imidazol-1-yl)pyridin-2-yl)-5,6-dihydro-4H-1,2,4-oxadiazine] | 2130 nM |
| COc1nc(C2=NOCC(C3CCOCC3)N2)ccc1-n1cnc(C)c1 (single isomer, unassigned; (-)) [Example 143A, (−)-3-(6-methoxy-5-(4-methyl-1H-imidazol-1-yl)pyridin-2-yl)-5-(tetrahydro-2H-pyran-4-yl)-5,6-dihydro-4H-1,2,4-oxadiazine] | > 3000 nM |
| COc1nc(C2=NOCC(c3oc(C)nc3C)N2)ccc1-n1cnc(C)c1 (single isomer, unassigned; (-)) [Example 161A, (−)-5-(2,4-dimethyloxazol-5-yl)-3-(6-methoxy-5-(4-methyl-1H-imidazol-1-yl)pyridin-2-yl)-5,6-dihydro-4H-1,2,4-oxadiazine] | > 3000 nM |
| COc1nc(C2=NOCC(c3cnn(C)c3)N2)ccc1-n1cnc(C)c1 (single isomer, unassigned; (-)) [Example 166A, (−)-3-(6-methoxy-5-(4-methyl-1H-imidazol-1-yl)pyridin-2-yl)-5-(1-methyl-1H-pyrazol-4-yl)-5,6-dihydro-4H-1,2,4-oxadiazine] | > 3000 nM |

same assay, conditions: compounds 0.003-10 μM, incubated overnight (16-18 h), sandwich ELISA of supernatant

| SMILES | EC50 |
| --- | --- |
| COc1nc(C2=NOCC(c3cccc(C4CC4)c3)N2)ccc1-n1cnc(C)c1 (single isomer, unassigned; (-)) [Example 127A, (−)-5-(3-cyclopropylphenyl)-3-(6-methoxy-5-(4-methyl-1H-imidazol-1-yl)pyridin-2-yl)-5,6-dihydro-4H-1,2,4-oxadiazine] | 1030 nM |
| COc1nc(C2=NOCC(c3ccccc3C)N2)ccc1-n1cnc(C)c1 (single isomer, unassigned; (-)) [Example 131B, (−)-3-(6-methoxy-5-(4-methyl-1H-imidazol-1-yl)pyridin-2-yl)-5-(o-tolyl)-5,6-dihydro-4H-1,2,4-oxadiazine] | > 3000 nM |
| COc1nc(C2=NOCC(c3cccc(C#N)c3)N2)ccc1-n1cnc(C)c1 (single isomer, unassigned; (-)) [Example 141A, (−)-3-(3-(6-methoxy-5-(4-methyl-1H-imidazol-1-yl)pyridin-2-yl)-5,6-dihydro-4H-1,2,4-oxadiazin-5-yl) benzonitrile] | > 3000 nM |
| COc1cccc(C2CON=C(c3ccc(-n4cnc(C)c4)c(OC)n3)N2)c1 (single isomer, unassigned; (-)) [Example 145A, (−)-3-(6-methoxy-5-(4-methyl-1H-imidazol-1-yl)pyridin-2-yl)-5-(3-methoxyphenyl)-5,6-dihydro-4H-1,2,4-oxadiazine] | 2670 nM |
| COc1nc(C2=NOCC(C(C)(C)C)N2)ccc1-n1cnc(C)c1 (single isomer, unassigned; (-)) [Example 147A, (−)-5-(tert-butyl)-3-(6-methoxy-5-(4-methyl-1H-imidazol-1-yl)pyridin-2-yl)-5,6-dihydro-4H-1,2,4-oxadiazine] | 130 nM |
| COc1nc(C2=NOCC(C)N2)ccc1-n1cnc(C)c1 (single isomer, unassigned; (-)) [Example 149B, (−)-3-(6-methoxy-5-(4-methyl-1H-imidazol-1-yl)pyridin-2-yl)-5-methyl-5,6-dihydro-4H-1,2,4-oxadiazine] | > 3000 nM |
| COc1nc(C2=NOCC(c3ccc(C#N)cc3)N2)ccc1-n1cnc(C)c1 (single isomer, unassigned; (-)) [Example 151A, (−)-4-(3-(6-methoxy-5-(4-methyl-1H-imidazol-1-yl)pyridin-2-yl)-5,6-dihydro-4H-1,2,4-oxadiazin-5-yl) benzonitrile] | > 3000 nM |
| COc1nc(C2=NOCC(CC(C)C)N2)ccc1-n1cnc(C)c1 (single isomer, unassigned; (-)) [Example 154B, (−)-5-isobutyl-3-(6-methoxy-5-(4-methyl-1H-imidazol-1-yl)pyridin-2-yl)-5,6-dihydro-4H-1,2,4-oxadiazine] | 199 nM |
| COc1nc(C2=NOCC(c3cscn3)N2)ccc1-n1cnc(C)c1 (single isomer, unassigned; (-)) [Example 156B, (−)-3-(6-methoxy-5-(4-methyl-1H-imidazol-1-yl)pyridin-2-yl)-5-(thiazol-4-yl)-5,6-dihydro-4H-1,2,4-oxadiazine] | > 3000 nM |
| COc1nc(C2=NOCC(C3CCC3)N2)ccc1-n1cnc(C)c1 (single isomer, unassigned; (-)) [Example 163B, (−)-5-cyclobutyl-3-(6-methoxy-5-(4-methyl-1H-imidazol-1-yl)pyridin-2-yl)-5,6-dihydro-4H-1,2,4-oxadiazine] | 368 nM |
| COc1nc(C2=NOCC(c3ccccn3)N2)ccc1-n1cnc(C)c1 (single isomer, unassigned; (-)) [Example 168B, (−)-3-(6-methoxy-5-(4-methyl-1H-imidazol-1-yl)pyridin-2-yl)-5-(pyridin-2-yl)-5,6-dihydro-4H-1,2,4-oxadiazine] | > 3000 nM |
| COc1nc(C2=NOCC(C3CCCC3)N2)ccc1-n1cnc(C)c1 (single isomer, unassigned; (-)) [Example 171B, (−)-5-cyclopentyl-3-(6-methoxy-5-(4-methyl-1H-imidazol-1-yl)pyridin-2-yl)-5,6-dihydro-4H-1,2,4-oxadiazine] | 107 nM |
| COc1nc(C2=NOCC(C3CCS(=O)(=O)CC3)N2)ccc1-n1cnc(C)c1 (single isomer, unassigned; (-)) [Example 177B, (−)-4-(3-(6-methoxy-5-(4-methyl-1H-imidazol-1-yl)pyridin-2-yl)-5,6-dihydro-4H-1,2,4-oxadiazin-5-yl) tetrahydro-2H-thiopyran 1,1-dioxide] | > 3000 nM |
| COc1nc(C2=NOCC(C3CC(F)(F)C3)N2)ccc1-n1cnc(C)c1 (single isomer, unassigned; (-)) [Example 180A, (−)-5-(3,3-difluorocyclobutyl)-3-(6-methoxy-5-(4-methyl-1H-imidazol-1-yl)pyridin-2-yl)-5,6-dihydro-4H-1,2,4-oxadiazine] | > 3000 nM |
| COc1nc(C2=NOCC(c3ccc4ncsc4c3)N2)ccc1-n1cnc(C)c1 (single isomer, unassigned; (-)) [Example 183A, (−)-5-(benzo [d]thiazol-6-yl)-3-(6-methoxy-5-(4-methyl-1H-imidazol-1-yl)pyridin-2-yl)-5,6-dihydro-4H-1,2,4-oxadiazine] | 1760 nM |
| COc1nc(C2=NOCC(c3cc4ccccc4o3)N2)ccc1-n1cnc(C)c1 (single isomer, unassigned; (-)) [Example 186A, (−)-5-(benzofuran-2-yl)-3-(6-methoxy-5-(4-methyl-1H-imidazol-1-yl)pyridin-2-yl)-5,6-dihydro-4H-1,2,4-oxadiazine] | 1170 nM |
| COc1nc(C2=NOCC(c3cn(C)c4ccccc34)N2)ccc1-n1cnc(C)c1 (single isomer, unassigned; (-)) [Example 189B, (−)-3-(6-methoxy-5-(4-methyl-1H-imidazol-1-yl)pyridin-2-yl)-5-(1-methyl-1H-indol-3-yl)-5,6-dihydro-4H-1,2,4-oxadiazine] | 252 nM |
| COc1nc(C2=NOCC(c3cn(C)c4ccc(F)cc34)N2)ccc1-n1cnc(C)c1 (single isomer, unassigned; (-)) [Example 190A, (−)-5-(5-fluoro-1-methyl-1H-indol-3-yl)-3-(6-methoxy-5-(4-methyl-1H-imidazol-1-yl)pyridin-2-yl)-5,6-dihydro-4H-1,2,4-oxadiazine] | 287 nM |
| COc1nc(C2=NOCC(c3cn(C)c4cccc(F)c34)N2)ccc1-n1cnc(C)c1 (single isomer, unassigned; (-)) [Example 191B, (−)-5-(4-fluoro-1-methyl-1H-indol-3-yl)-3-(6-methoxy-5-(4-methyl-1H-imidazol-1-yl)pyridin-2-yl)-5,6-dihydro-4H-1,2,4-oxadiazine] | 83.2 nM |
| COc1nc(C2=NOCC(c3cn(C)c4cc(F)ccc34)N2)ccc1-n1cnc(C)c1 (single isomer, unassigned; (-)) [Example 192A, (−)-5-(6-fluoro-1-methyl-1H-indol-3-yl)-3-(6-methoxy-5-(4-methyl-1H-imidazol-1-yl)pyridin-2-yl)-5,6-dihydro-4H-1,2,4-oxadiazine] | 170 nM |
| COc1nc(C2=NOCC(c3cn(C)c4ccc(Cl)cc34)N2)ccc1-n1cnc(C)c1 (single isomer, unassigned; (-)) [Example 193A, (−)-5-(5-chloro-1-methyl-1H-indol-3-yl)-3-(6-methoxy-5-(4-methyl-1H-imidazol-1-yl)pyridin-2-yl)-5,6-dihydro-4H-1,2,4-oxadiazine] | 71 nM |
| COc1nc(C2=NOCC(c3cn(C)c4cc(Cl)ccc34)N2)ccc1-n1cnc(C)c1 (single isomer, unassigned; (-)) [Example 194B, (−)-5-(6-chloro-1-methyl-1H-indol-3-yl)-3-(6-methoxy-5-(4-methyl-1H-imidazol-1-yl)pyridin-2-yl)-5,6-dihydro-4H-1,2,4-oxadiazine] | 147 nM |
| COc1nc(C2=NOCC(c3cn(C)c4ncccc34)N2)ccc1-n1cnc(C)c1 (single isomer, unassigned; (-)) [Example 195A, (−)-3-(6-methoxy-5-(4-methyl-1H-imidazol-1-yl)pyridin-2-yl)-5-(1-methyl-1H-pyrrolo [2,3-b]pyridin-3-yl)-5,6-dihydro-4H-1,2,4-oxadiazine] | 2110 nM |
| COc1nc(C2=NOCC(c3cn(C(C)C)c4cccc(F)c34)N2)ccc1-n1cnc(C)c1 (single isomer, unassigned; (-)) [Example 196B, (−)-5-(4-fluoro-1-isopropyl-1H-indol-3-yl)-3-(6-methoxy-5-(4-methyl-1H-imidazol-1-yl)pyridin-2-yl)-5,6-dihydro-4H-1,2,4-oxadiazine] | 220 nM |
